Experimental data from the NIST ThermoML archive (doi:10.1016/j.jct.2008.01.006).

Details: Liquid, Vibrating tube method

CCCCCCCN [1-heptanamine]
mass density [kg/m3]
Details	293.15 K	303.15 K	313.15 K	323.15 K	333.15 K	343.15 K	353.15 K
100 kPa	774.9	766.5	758.2	749.8	741.4	732.6	724.4
10000 kPa	781.1	773.6	765.4	757.6	749.5	741.7	733.7
20000 kPa	787.1	780	772	764.5	756.8	749.6	741.9
30000 kPa	792.6	785.8	778.2	771	763.4	756.7	749.3
40000 kPa	797.8	791.3	784	777	769.6	763.3	756.2
50000 kPa	802.7	796.5	789.3	782.6	775.5	769.4	762.6
60000 kPa	807.4	801.3	794.5	787.8	780.9	775.1	768.7
70000 kPa	811.8	806	799.2	792.7	786.2	780.4	774.2
80000 kPa	816.1	810.4	803.7	797.5	791.1	785.5	779.5
90000 kPa	820.2	814.6	808	802	795.6	790.3	784.3
100000 kPa	824	818.7	812.2	806.3	800	794.9	789.2
110000 kPa	827.8	822.5	816.2	810.6	804.3	799.2	793.7
120000 kPa	831.5	826.2	820.1	814.5	808.4	803.3	797.9
130000 kPa	835	829.9	823.8	818.4	812.4	807.4	802.1
140000 kPa	838.3	833.3	827.4	822.1	816.2	811.3	806.1

CCCCCCN [1-hexanamine]
mass density [kg/m3]
Details	293.15 K	303.15 K	313.15 K	323.15 K	333.15 K	343.15 K	353.15 K
100 kPa	765.1	756.2	748.2	738.9	730.2	721.3	712.4
10000 kPa	771.5	763.5	755.4	746.9	738.7	730.6	722.3
20000 kPa	777.6	770.2	762.3	754.2	746.3	738.8	731.1
30000 kPa	783.4	776.3	768.6	761	753.4	746.4	739
40000 kPa	788.8	781.9	774.6	767.2	759.9	753.2	746
50000 kPa	793.8	787.2	780.2	772.9	765.9	759.6	752.5
60000 kPa	798.8	792.2	785.3	778.4	771.6	765.6	759
70000 kPa	803.3	796.9	790.3	783.5	776.9	771	764.6
80000 kPa	807.7	801.5	794.9	788.4	781.9	776.2	770
90000 kPa	811.9	805.8	799.4	792.9	786.7	781.1	775.1
100000 kPa	815.9	810	803.7	797.3	791.2	785.9	780
110000 kPa	819.8	814	807.8	801.7	795.7	790.3	784.6
120000 kPa	823.5	817.9	811.7	805.8	799.9	794.6	789.1
130000 kPa	827.1	821.6	815.5	809.7	803.8	798.8	793.2
140000 kPa	830.5	825.1	819.1	813.5	807.6	802.7	797.3

CCCCCN [1-pentanamine]
mass density [kg/m3]
Details	293.15 K	303.15 K	313.15 K	323.15 K	333.15 K	343.15 K	353.15 K
100 kPa	754.1	744.7	735.6	726.4	716.9	707.5	698
10000 kPa	760.9	752.6	743.8	735.1	726.1	717.8	708.7
20000 kPa	767.4	759.6	751.1	742.8	734.3	726.5	718
30000 kPa	773.4	765.9	757.9	749.8	741.7	734.4	726.3
40000 kPa	778.9	772	764.1	756.3	748.5	741.6	733.9
50000 kPa	784.2	777.4	769.8	762.3	754.8	748.2	740.8
60000 kPa	789.3	782.7	775.2	768	760.7	754.3	747.4
70000 kPa	794	787.4	780.3	773.2	766.3	760	753.3
80000 kPa	798.5	792.1	785.1	778.2	771.5	765.4	759.1
90000 kPa	802.8	796.5	789.7	783	776.5	770.6	764.2
100000 kPa	806.9	800.8	794.1	787.6	781.1	775.4	769.3
110000 kPa	810.8	805	798.4	792.1	785.6	780.1	774.1
120000 kPa	814.7	808.8	802.4	796.2	790	784.4	778.6
130000 kPa	818.4	812.5	806.4	800.3	794.2	788.7	782.9
140000 kPa	822	816.1	810.1	804.2	798	792.8	787.2
